Consider 3 compounds from ChEMBL document CHEMBL3227957, “(+)-Isobutaclamol: a crystallographic, pharmacological, and biochemical study” (J Med Chem, 1979).

Test [1] can be described thus: Displacement of [3H]spiperone from calf striatum dopamine receptor. Details: species or system Bos taurus. A general note: Displacement assays read how much labelled ligand stays bound in the presence of the test substance.
Test [2] can be described thus: Displacement of [3H]haloperidol from rat striatum dopamine receptor.
Test [3] deals with Rattus norvegicus. As to the kind of experiment: Inhibition of (+)-amphetamine-induced stereotyped behavior in ip dosed rat administered 15 mins prior to (+)-amphetamine challenge measured after 15 mins. The class given is functional. As to conditions: read-out: MED.
The species entered for the next test is Bos taurus. As to the kind of experiment: Displacement of [3H]spiperone from calf striatum dopamine receptor at 1000 nM.
The species named for test [4] is Rattus norvegicus. The experiment in a line: Displacement of [3H]haloperidol from rat striatum dopamine receptor at 1000 nM.

SMILES strings stand for the structures. pIC50: −log10 of the molar value.

The term pIC50 denotes the negative decadic logarithm of the IC50, by convention in mol/L. Low values mean a high IC50, high ones a low IC50. Consider `CC(C)(C)[C@]1(O)CCN2C[C@H]3Cc4ccccc4Cc4cccc(c43)[C@@H]2C1.Cl` (racemic), for which the pIC50 in test [1] and in test [2] was 8.77 throughout. Further, the minimal effective dose with Rattus norvegicus [3] turned out to be 0.62 mg/kg.

What is called inhibition is the drop in the measured response relative to a control, in per cent. With `Br.CC(C)(C)[C@@]1(O)CCN2C[C@@H]3Cc4ccccc4Cc4cccc(c43)[C@H]2C1`, the inhibition in the test listed under Bos taurus and in the test filed under Rattus norvegicus [4] was 0% each time. Moreover, the minimal effective dose in the test with Rattus norvegicus [3] is more than 25 mg/kg.

`Br.CC(C)(C)[C@]1(O)CCN2C[C@H]3Cc4ccccc4Cc4cccc(c43)[C@@H]2C1`: the pIC50 in test [1] and in test [2] was 9.10 in each case. Besides, the minimal effective dose in the test with Rattus norvegicus [3] came to 0.31 mg/kg.
